As a reminder, the pIC50 is the negative decadic logarithm of the IC50, by convention in mol/L. Lower therefore signals a large IC50.

The record followed here is PMC9001643, “Conservation of the unusual dimeric JmjC fold of JMJD7 from Drosophila melanogaster to humans” (Scientific Reports, 2022).

Molecules are shown by their SMILES. pIC50: −log10 of the molar value.

T1 sequence (Q9VU77 whole entry, the tested form may be a part): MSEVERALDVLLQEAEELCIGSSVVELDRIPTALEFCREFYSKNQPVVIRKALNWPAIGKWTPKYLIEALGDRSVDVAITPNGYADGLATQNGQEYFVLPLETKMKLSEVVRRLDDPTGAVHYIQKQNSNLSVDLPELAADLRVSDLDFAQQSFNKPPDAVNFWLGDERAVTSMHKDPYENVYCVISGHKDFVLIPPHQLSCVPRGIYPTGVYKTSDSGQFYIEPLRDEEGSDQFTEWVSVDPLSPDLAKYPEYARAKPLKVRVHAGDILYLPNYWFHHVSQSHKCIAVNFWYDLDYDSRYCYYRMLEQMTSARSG

The first test has as its target T1, dmJMJD7 (Drosophila melanogaster, UniProt Q9VU77).
T1 construct: gene JMJD7; full-length dmJMJD7, aa 1–316, N-terminally His6-tagged
The test is described as follows: crystal structure. It counts as binding.
As for `O=C(O)C(=O)N[C@H](Cc1ccccc1)C(=O)O` [NOFD, N-oxalyl-D-phenylalanine], the crystal structure entry is listed as “dmJMJD7.N-oxalyl-D-phenylalanine (PDB: 7YXL)”. On to `O=C(O)CCC(=O)O` [succinate], for which the crystal structure entry is listed as “dmJMJD7.succinate (PDB: 7YXH)”. On the same count and under the same terms, then `O=C(O)CCC(=O)C(=O)O` [2OG, 2-oxoglutarate], with “crystals of His6-dmJMJD7.Mn complexed with its co-substrate 2OG or co-product succinate”.

For another test, the target named is T1, dmJMJD7. The test is described as follows: crystal structure; SPE-MS inhibition assay with DRG1 peptide. Format: biochemical.
Consider `O=C(O)c1ccnc(C(=O)O)c1` [2,4-PDCA, pyridine-2,4-dicarboxylate], for which the pIC50 is 5.87. `C[C@@H](NC(=O)C(=O)O)C(=O)O` [NODA, N-oxalyl-D-alanine] gave a pIC50 of 5.38.

The compound `O=C(O)CNC(=O)C(=O)O` [NOG, N-oxalylglycine] had a pIC50 of 6.52.
